Among the data in patent US9561231B2 (AbbVie Inc., priority 2012, dated 2017) are Ki and EC50 values, retold here.

pEC50, pKi: −log10 of the molar value.

Assay [1] concerns the target T1, first (BD1: amino acids K57-E168) bromodomain of BRD4 (Homo sapiens, UniProt O60885).
T1 construct: His-tagged first (BD1: amino acids K57-E168)
Kind of assay: TR-FRET bromodomain binding assay, BRD4 BD1. The note with it: TR-FRET assay protocol (A-G, compound concentration range); Ki calculated from IC50, probe Kd and probe concentration; read-out: TR-FRET Binding Ki: BRD4 (BDI_K57-E168). In short, it runs like this: (§1)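 His-tagged BRD4 bromodomain competed against an Alexa647-labeled BET-inhibitor probe by TR-FRET in 20 mM sodium phosphate pH 6.0, 50 mM NaCl, 1 mM EDTA, 0.01% Triton X-100, 1 mM DTT.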

The target in assay [2] is T2, second (BD2: amino acids E352-E168) bromodomain of BRD4 (Homo sapiens, UniProt O60885).
T2 construct: protocol
In words: TR-FRET bromodomain binding assay, BRD4 BD2. The note with it: TR-FRET assay protocol (A-G, compound concentration range); Ki calculated from IC50, probe Kd and probe concentration; read-out: TR-FRET Binding Ki: BRD4 (BDII_E352-M457). In short, it runs like this: as §1

For assay [3], the system named is breast cancer cell line MX-1. Kind of assay: MX-1 cell line proliferation assay (3-day). The conditions noted are these: Homo sapiens, MX1; MX-1 cells, 72 h incubation, Cell Titer Glo; read-out: Cellular proliferation: EC50. The assay is classed as cell-based. The essentials:
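MX-1 cells in RPMI/10% FBS, plated 5000/well overnight, then exposed to compound at final 3 to 0.0001 μM (3-fold series) for 3 days at 37° C. Cell Titer Glo luminescence normalized to DMSO-treated cells; EC50 from sigmoidal curve fit.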

Assay [4] concerns SKM1. Kind of assay: Proliferation panel assay: SKM1. The conditions noted are these: Homo sapiens, SKM-1, 120 h; SKM1 (AML); 5 days, Cell Titer Glo; read-out: Cellular Proliferation EC50. The assay is classed as cell-based.
The test system of assay [5] is MDAMB231. Kind of assay: Proliferation panel assay: MDAMB231. The assay is classed as cell-based. The note with it: Homo sapiens, MDA-MB-231, 120 h; MDAMB231 (Breast); 5 days, Cell Titer Glo; read-out: Cellular Proliferation EC50.
For assay [6], the system named is MDAMB453. Kind of assay: Proliferation panel assay: MDAMB453. The assay is classed as cell-based. The conditions noted are these: Homo sapiens, MDA-MB-453, 120 h; MDAMB453 (Breast); 5 days, Cell Titer Glo; read-out: Cellular Proliferation EC50.
The subject of assay [7] is DLD-1. In words: Proliferation panel assay: DLD-1. The assay is classed as cell-based. The note with it: Homo sapiens, 120 h; DLD-1 (Colon); 5 days, Cell Titer Glo; read-out: Cellular Proliferation EC50.
For assay [8], the system named is GEO. Kind of assay: Proliferation panel assay: GEO. The assay is classed as cell-based. The conditions noted are these: 120 h; GEO (Colon); 5 days, Cell Titer Glo; read-out: Cellular Proliferation EC50.
The subject of assay [9] is FaDu. Kind of assay: Proliferation panel assay: FaDu. Format: cell-based. The conditions noted are these: Homo sapiens, 120 h; FaDu (Head & Neck); 5 days, Cell Titer Glo; read-out: Cellular Proliferation EC50.
In assay [10] the test system is HepG2. In words: Proliferation panel assay: HepG2. The assay is classed as cell-based. The note with it: Homo sapiens, 120 h; HepG2 (Hepatocellular); 5 days, Cell Titer Glo; read-out: Cellular Proliferation EC50.
Assay [11] relates to OPM2. Kind of assay: Proliferation panel assay: OPM2. The assay is classed as cell-based. The note with it: Homo sapiens, OPM-2, 120 h; OPM2 (Multiple Myeloma); 5 days, Cell Titer Glo; read-out: Cellular Proliferation EC50.
Assay [12] has as its system RPMI-8226. Kind of assay: Proliferation panel assay: RPMI-8226. Format: cell-based. The note with it: Homo sapiens, 120 h; RPMI-8226 (Multiple Myeloma); 5 days, Cell Titer Glo; read-out: Cellular Proliferation EC50.
The subject of assay [13] is Ly18. In words: Proliferation panel assay: Ly18. The assay is classed as cell-based. The note with it: 120 h; Ly18 (NHL); 5 days, Cell Titer Glo; read-out: Cellular Proliferation EC50.
The test system of assay [14] is Ramos. In words: Proliferation panel assay: Ramos. Format: cell-based. The note with it: Homo sapiens, 120 h; Ramos (NHL); 5 days, Cell Titer Glo; read-out: Cellular Proliferation EC50.
The test system of assay [15] is H1975. Kind of assay: Proliferation panel assay: H1975. The note with it: Homo sapiens, NCI-H1975, 120 h; H1975 (NSCLC); 5 days, Cell Titer Glo; read-out: Cellular Proliferation EC50. Format: cell-based.
Assay [16] deals with HPAC. Kind of assay: Proliferation panel assay: HPAC. The assay is classed as cell-based. The note with it: Homo sapiens, 120 h; HPAC (Pancreas); 5 days, Cell Titer Glo; read-out: Cellular Proliferation EC50.
Assay [17] relates to PC3M. In words: Proliferation panel assay: PC3M. Format: cell-based. The conditions noted are these: Homo sapiens, PC-3M, 120 h; PC3M (Prostate); 5 days, Cell Titer Glo; read-out: Cellular Proliferation EC50.
Assay [18] relates to 786-0. Kind of assay: Proliferation panel assay: 786-0. Format: cell-based. The note with it: Homo sapiens, 120 h; 786-0 (RCC); 5 days, Cell Titer Glo; read-out: Cellular Proliferation EC50.

Turning to `Cc1cc(-c2cc(NS(C)(=O)=O)ccc2Oc2ccccc2)c[nH]c1=O` [Example 261, N-[3-(5-methyl-6-oxo-1,6-dihydropyridin-3-yl)-4-phenoxyphenyl]methanesulfonamide], the values for the pKi in assay [1] and in assay [2] were 7.59 and 7.18, respectively. Besides, the pEC50 in assay [3] was 6.41; in assay [4], 6.87; in [5], 6.34; in [6] it was 6.47; in [7] it was 6.21; in assay [8], 6.17. Also, the pEC50 in assay [9] is 6.57; in [10] it was 6.29; in assay [11], 7.26; in [12] it was 6.52; in assay [13], 6.29; in assay [14], 6.41. The pEC50 was 6.33 in [15], 6.30 in assay [16], 5.85 in assay [17] and 6.60 in [18].
Consider `Cn1cc(-c2cc(NS(C)(=O)=O)ccc2Oc2ccccc2)ccc1=O` [Example 224, N-[3-(1-methyl-6-oxo-1,6-dihydropyridin-3-yl)-4-phenoxyphenyl]methanesulfonamide], for which the values for the pKi in [1] and in assay [2] were 7.32 and 6.95, respectively. The pEC50 in assay [3] was 6.68; in assay [4] it was 6.94; in assay [5], 6.14; in assay [6], 6.49; in assay [7], 6.07; in [8] it was 6.26. For the same compound, the pEC50 in [9] is 6.55; in [10], 6.31; in assay [11], 7.30; in [12], 6.55; in [13], 6.28; in assay [14], 6.43. In addition, the pEC50 in assay [15] is 6.42; in assay [16] it was 6.42; in assay [17], 5.84; in assay [18], 6.56.
